Data reported in ChEMBL document CHEMBL5346970, “Targeting EP2 Receptor for Drug Discovery: Strengths, Weaknesses, Opportunities, and Threats (SWOT) Analysis” (J Med Chem, 2023).

Key:
[1] = Terminal half life in Sprague-Dawley rat at 0.1 ml/kg, po; assay type: ADME; details: in vivo, read-out: beta t1/2 (converted)
[2] = Oral bioavailability in Sprague-Dawley rat at 0.1 ml/kg; assay type: ADME, organism-based; details: in vivo
[3] = target: Prostaglandin E2 receptor EP2 subtype (Mus musculus, UniProt Q62053); experiment: Antagonist activity at EP2 receptor in C57BL/6 mouse trachea assessed as inhibition of PGE2-induced relaxation in rings of trachea pretreated for 30 mins in presence of carbachol followed by PGE2 relaxation; assay type: functional, tissue-based
[4] = tested on: SK-N-AS; experiment: Antitumor activity against human SK-N-AS cells xenografted in athymic nude mouse assessed as reduction in tumor proliferation at 10 mg/kg, ip administered once daily for 18 days by Ki-67 staining based immunohistochemistry analysis relative to control; assay type: functional; parameters: scale not given: the % may be the effect or the level left; details: time 18 day
[5] = tested on: SK-N-AS; experiment: Antitumor activity against human SK-N-AS cells xenografted in athymic nude mouse assessed as reduction in tumor proliferation at 20 mg/kg, ip administered once daily for 18 days by Ki-67 staining based immunohistochemistry analysis relative to control; assay type: functional; parameters: scale not given: the % may be the effect or the level left; details: time 18 day

Sequence of Prostaglandin E2 receptor EP2 subtype (Q62053 whole entry): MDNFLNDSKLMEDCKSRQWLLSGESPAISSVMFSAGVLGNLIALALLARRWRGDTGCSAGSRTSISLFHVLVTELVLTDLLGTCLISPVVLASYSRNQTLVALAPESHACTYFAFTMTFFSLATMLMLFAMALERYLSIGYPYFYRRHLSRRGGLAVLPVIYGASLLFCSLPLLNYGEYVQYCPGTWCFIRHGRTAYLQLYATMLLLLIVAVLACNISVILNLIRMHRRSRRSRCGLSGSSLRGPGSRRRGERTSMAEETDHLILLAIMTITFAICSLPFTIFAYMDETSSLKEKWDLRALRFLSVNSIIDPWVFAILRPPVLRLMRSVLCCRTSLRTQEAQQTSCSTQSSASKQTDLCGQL

Row | half-life [1] | bioavailability [2] | IC50 [3] | SMILES | Activity [4] | Activity [5]
1 | 8.8 h | 78% | 2.7 nM | COc1ccc2cc(OCC3(C(=O)O)CN(C(=O)c4ccc(F)cc4)C3)ccc2c1 [PF-04418948] | – | –
2 | – | – | – | CCc1nnc(NS(=O)(=O)c2ccc(NC(=S)NC(=O)/C=C/c3ccc(F)cc3)cc2)s1 | 25% | 55%
